Experiments:
[1] = system: rat adjuvant-induced arthritis model; assay: Embodiment 2: oral Nib1 and medium-dose methotrexate in rat adjuvant-induced arthritis model (joint score, paw volume, AUC); assay type: in vivo, Lewis rat; conditions: MTX 0.5 mpk, Nib1 5 mpk, Nib1 5 mpk + MTX 0.5 mpk
rheumatoid arthritis = conditions: cited from earlier work
[2] = system: adjuvant-induced arthritis in rats; assay: Embodiment 3: oral Nib1 and methotrexate in adjuvant-induced arthritis in rats (joint score, paw volume, AUC); assay type: in vivo, Lewis rat; conditions: oral, Tofacitinib 5 mpk, MTX 0.05 mpk, Nib1 1 mpk, Nib1 1 mpk + MTX 0.05 mpk

CN(Cc1cnc2nc(N)nc(N)c2n1)c1ccc(C(=O)N[C@@H](CCC(=O)O)C(=O)O)cc1 [MTX, Methotrexate]
Total area (AUC of changes in paw volume) ([1]; Embodiment 2, Tofacitinib 5 mpk, in mL·day): 29.94
Clinical scoring of arthritis (sum of the scores of the quadrupedal joints), Average value ([1]; day 0, Tofacitinib 5 mpk): 0
paw volume (right hind foot), Average value ([1]; day 0, Tofacitinib 5 mpk): 1.02 mL
Clinical scoring of arthritis (sum of the scores of the quadrupedal joints), Average value ([1]; day 7, Tofacitinib 5 mpk): 0.75
paw volume (right hind foot), Average value ([1]; day 7, Tofacitinib 5 mpk): 1.98 mL
Clinical scoring of arthritis (sum of the scores of the quadrupedal joints), Average value ([1]; day 13, Tofacitinib 5 mpk): 1.75
paw volume (right hind foot), Average value ([1]; day 13, Tofacitinib 5 mpk): 2.10 mL
Clinical scoring of arthritis (sum of the scores of the quadrupedal joints), Average value ([1]; day 15, Tofacitinib 5 mpk): 5.50
paw volume (right hind foot), Average value ([1]; day 15, Tofacitinib 5 mpk): 2.28 mL
Clinical scoring of arthritis (sum of the scores of the quadrupedal joints), Average value ([1]; day 17, Tofacitinib 5 mpk): 7.00
paw volume (right hind foot), Average value ([1]; day 17, Tofacitinib 5 mpk): 2.43 mL
Clinical scoring of arthritis (sum of the scores of the quadrupedal joints), Average value ([1]; day 20, Tofacitinib 5 mpk): 7.50
paw volume (right hind foot), Average value ([1]; day 20, Tofacitinib 5 mpk): 2.48 mL
Clinical scoring of arthritis (sum of the scores of the quadrupedal joints), Average value ([1]; day 22, Tofacitinib 5 mpk): 7.63
paw volume (right hind foot), Average value ([1]; day 22, Tofacitinib 5 mpk): 2.50 mL
Clinical scoring of arthritis (sum of the scores of the quadrupedal joints), Average value ([1]; day 24, Tofacitinib 5 mpk): 7.63
paw volume (right hind foot), Average value ([1]; day 24, Tofacitinib 5 mpk): 2.56 mL
Clinical scoring of arthritis (sum of the scores of the quadrupedal joints), Average value ([1]; day 27, Tofacitinib 5 mpk): 7.50
paw volume (right hind foot), Average value ([1]; day 27, Tofacitinib 5 mpk): 2.62 mL
Clinical scoring of arthritis (sum of the scores of the quadrupedal joints), Average value ([1]; day 29, Tofacitinib 5 mpk): 7.63
paw volume (right hind foot), Average value ([1]; day 29, Tofacitinib 5 mpk): 2.65 mL
Clinical scoring of arthritis (sum of the scores of the quadrupedal joints), Average value ([1]; day 31, Tofacitinib 5 mpk): 7.63
paw volume (right hind foot), Average value ([1]; day 31, Tofacitinib 5 mpk): 2.66 mL
Clinical scoring of arthritis (sum of the scores of the quadrupedal joints), Average value ([1]; day 34, Tofacitinib 5 mpk): 7.50
paw volume (right hind foot), Average value ([1]; day 34, Tofacitinib 5 mpk): 1.02 mL
main side effects (rheumatoid arthritis; rheumatoid arthritis therapy): liver and gastrointestinal toxicity
patients who stop taking the drug because of side effects (rheumatoid arthritis; within a year): about 50%
Area under the curve AUC (ml*day) of changes in paw volume ([2]; Embodiment 3): 19.31 mL·days
Clinical scoring of arthritis (sum of the scores of the quadrupedal joints), Average value ([2]; day 0): 0.00
volume of the right hind foot, Average value ([2]; day 0): 1.30 mL
Clinical scoring of arthritis (sum of the scores of the quadrupedal joints), Average value ([2]; day 8): 0.44
volume of the right hind foot, Average value ([2]; day 8): 1.38 mL
Clinical scoring of arthritis (sum of the scores of the quadrupedal joints), Average value ([2]; day 11): 4.33
volume of the right hind foot, Average value ([2]; day 11): 2.14 mL
Clinical scoring of arthritis (sum of the scores of the quadrupedal joints), Average value ([2]; day 13): 7.33
Clinical scoring of arthritis (sum of the scores of the quadrupedal joints), Average value ([2]; day 15): 9.00
volume of the right hind foot, Average value ([2]; day 15): 2.88 mL
Clinical scoring of arthritis (sum of the scores of the quadrupedal joints), Average value ([2]; day 18): 10.22
volume of the right hind foot, Average value ([2]; day 18): 3.14 mL
Clinical scoring of arthritis (sum of the scores of the quadrupedal joints), Average value ([2]; day 21): 10.78
Clinical scoring of arthritis (sum of the scores of the quadrupedal joints), Average value ([2]; day 24): 10.89

From patent US12409179B2 (GENEROS BIOPHARMA LTD., priority 2019, dated 2025)
